Reference: patent publication US20090186110A1, “GUAVA EXTRACT” (priority 2005, published 2009)

Biological target: T1, DP-IV (Homo sapiens, UniProt P27487)
T1 construct: DP-IV also exists as a soluble circulating form in plasma; from tissue; host or cells: human plasma
Test: DP-IV activity colorimetric assay (Gly-Pro-4-NA substrate, human plasma)
Format: biochemical
Method: DP-IV activity was measured by a colorimetric assay.
DP-IV activity is expressed as the linear change in optical density over 20 min (Δ Abs/min).

T1 sequence (P27487 39-766 limits assumed): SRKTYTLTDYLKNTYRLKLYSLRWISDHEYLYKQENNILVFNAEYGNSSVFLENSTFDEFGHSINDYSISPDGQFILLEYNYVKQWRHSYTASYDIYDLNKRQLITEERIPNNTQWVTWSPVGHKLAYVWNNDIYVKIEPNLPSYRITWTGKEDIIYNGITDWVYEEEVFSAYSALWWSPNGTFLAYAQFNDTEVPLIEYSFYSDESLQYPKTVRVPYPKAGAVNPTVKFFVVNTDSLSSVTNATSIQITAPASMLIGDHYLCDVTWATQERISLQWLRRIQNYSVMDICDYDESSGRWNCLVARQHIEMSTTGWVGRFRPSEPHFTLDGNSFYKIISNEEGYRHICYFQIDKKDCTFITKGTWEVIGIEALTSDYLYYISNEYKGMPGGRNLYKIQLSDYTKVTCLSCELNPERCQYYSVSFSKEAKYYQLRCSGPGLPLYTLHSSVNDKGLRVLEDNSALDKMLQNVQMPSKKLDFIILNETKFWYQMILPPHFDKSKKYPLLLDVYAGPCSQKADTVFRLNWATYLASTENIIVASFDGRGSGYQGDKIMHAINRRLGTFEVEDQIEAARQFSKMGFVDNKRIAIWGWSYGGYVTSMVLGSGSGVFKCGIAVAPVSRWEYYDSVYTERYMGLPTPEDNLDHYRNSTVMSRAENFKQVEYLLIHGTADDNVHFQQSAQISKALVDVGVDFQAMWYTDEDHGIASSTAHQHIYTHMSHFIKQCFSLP

Compound: O=c1c(O[C@@H]2OC[C@H](O)[C@H](O)[C@H]2O)c(-c2ccc(O)c(O)c2)oc2cc(O)cc(O)c12 [guaijaverin]
- DP-IV inhibition (result in words): clear, dose dependent inhibition of DP-IV
- concentration that yielded a DP-IV inhibition of around 50% (guaijaverin in HEPES buffer, tested 70-280 μg/mL): 140-210 μg/mL test assay
